Experimental data reported in the NIST ThermoML archive (doi:10.1016/j.jct.2016.10.022).
± gives the expanded uncertainty stated by the source.

Key:
[1] = Crystal; DTA
[2] = Molar enthalpy of transition or fusion; details: Crystal; DSC

CC[C@H](C)[C@H]1O[C@]2(C=C[C@@H]1C)C[C@@H]1C[C@@H](C/C=C(\C)[C@@H](O[C@H]3C[C@H](OC)[C@@H](O[C@H]4C[C@H](OC)[C@@H](O)[C@H](C)O4)[C@H](C)O3)[C@@H](C)/C=C/C=C3\CO[C@@H]4[C@H](O)C(C)=C[C@@H](C(=O)O1)[C@]34O)O2 [Avermectin B1a]
Normal melting temperature [1]: 163.29 ± 0.61 °C
Molar enthalpy of transition or fusion [2]: 6.91 ± 0.153 kcal/mol
